Results as given in patent US8440619B2, “Utilization of hypertension/hypercardia-preventing effect of D-allose” (National University Corporation Kagawa University, priority 2005, dated 2013).

Key:
Nox-4 messenger RNA = test: Messenger RNA of NADPH oxidase-composing factor Nox4; type: in vivo, rat; settings: DS rats, 4% salt diet, 4 weeks, DR rats = 1.00
Text: (§1) Salt-sensitive male Dahl rats of age 7 weeks and with the onset of hypertension (DS) and salt-insensitive male Dahl rats of the same age (DR) were used. The DS rats were fed with a 0.5% salt diet or a 4% salt diet (Oriental Yeast Co., Ltd.) for 4 weeks (individually referred to as 0.5% salt diet group and 4% salt diet group). During the period, D-allose or D-glucose was orally given to the 4% salt diet group at 2 g daily/kg body weight (D-allose group or D-glucose group). The DR rats were fed with the 0.5% salt diet group and used as a normal control group. Blood pressure was measured by the tail-cuff method over time, while before salt loading and on the completion of salt loading, urine was collected for one day. On the last day of the observation period, the thoracic aorta was resected. A part thereof was used to quantify the amount of generated active oxygen in the aorta by the lucigenin method, while another part thereof was used to compare the amount of generated active oxygen between the groups by the dihydroxyethidium (DHE) fluorescence method. So as to assay the expression level of the messenger RNA of the NADPH oxidase involved in the increase of tissue oxidative stress (J Hypertens. 2004; 22:2161-2168), further, the renal cortex and the thoracic aorta were partially stored at −80° C. The levels of the messenger RNAs of p22phox and Nox analogs (Nox-1, gp91phox, Nox-4) as the NADPH oxidase-composing factors were assayed and compared in between thoracic aorta and renal cortex.

[1] = tested on: spontaneously hypertensive rats (SHR); test: Systolic blood pressure by the tail-cuff method in spontaneously hypertensive rats; type: in vivo, rat; settings: 2 g daily/kg orally, 4 weeks
Text: (§2) Male spontaneously hypertensive rats of age 8 weeks (SHR) and male Wister KYOTO rats (WKY) of the same age were used. SHR was fed with a 0.5% salt diet or a 8% salt diet (Oriental Yeast Co., Ltd.) for 4 weeks (individually referred to as the 0.5% salt diet group and the 8% salt diet group). Additionally, D-allose or D-glucose was orally given to the 0.5% salt diet group and the 8% salt diet group, at 2 g daily/kg body weight (D-allose group or D-glucose group) during the period. WKY was fed with the 0.5% salt diet and used as a normal control group. Systolic blood pressure was measured by the tail-cuff method over time.

[2] = Body weight, heart weight and kidney weight in SHR; type: in vivo, rat; settings: 2 g daily/kg orally, 4 weeks
Text: as §2

[3] = Urine generation, Na and protein excretion in urine in DS rats; type: in vivo, rat
Text: as §1, with “C.” for “C. The levels of the messenger RNAs of p22phox and Nox analogs (Nox-1, gp91phox, Nox-4) as the NADPH oxidase-composing factors were assayed and compared in between thoracic aorta and renal cortex.”

[4] = Body weight, organ weight and feed intake in DS rats; type: in vivo, rat; settings: 4% salt diet, 2 g daily/kg orally, after 4-week feeding
Text: as §1, with “C.” for “C. The levels of the messenger RNAs of p22phox and Nox analogs (Nox-1, gp91phox, Nox-4) as the NADPH oxidase-composing factors were assayed and compared in between thoracic aorta and renal cortex.”

Nox-1 messenger RNA = test: Messenger RNA of NADPH oxidase-composing factor Nox1; type: in vivo, rat; settings: DS rats, 4% salt diet, 4 weeks, DR rats = 1.00
Text: as §1

gp91phox messenger RNA = test: Messenger RNA of NADPH oxidase-composing factor gp91phox; type: in vivo, rat; settings: DS rats, 4% salt diet, 4 weeks, DR rats = 1.00
Text: as §1

[5] = tested on: salt-sensitive Dahl rats with the onset of hypertension (DS); test: Blood pressure by the tail-cuff method in salt-loaded salt-sensitive Dahl rats; type: in vivo, rat; settings: 4% salt diet, 2 g daily/kg body weight orally, in 4 weeks
Text: as §1, with “C.” for “C. The levels of the messenger RNAs of p22phox and Nox analogs (Nox-1, gp91phox, Nox-4) as the NADPH oxidase-composing factors were assayed and compared in between thoracic aorta and renal cortex.”

p22phox messenger RNA = test: Messenger RNA of NADPH oxidase-composing factor p22phox; type: in vivo, rat; settings: DS rats, 4% salt diet, 4 weeks, DR rats = 1.00
Text: as §1

[6] = tested on: active oxygen in rat thoracic aorta; test: Generated active oxygen in thoracic aorta, lucigenin method; type: in vivo; settings: DS rats, 4% salt diet, 2 g daily/kg orally, 4 weeks
Text: as §1, with “[…] Then,” for “The levels of”, “luminescence was counted with a luminescence reader (BLR-301; Aloka).” for “messenger RNAs of p22phox and Nox analogs (Nox-1, gp91phox, Nox-4) as the NADPH oxidase-composing factors were assayed and compared in between thoracic aorta and renal cortex.”

[7] = tested on: active oxygen in rat thoracic aorta; test: Generated active oxygen in thoracic aorta, DHE fluorescence method; type: in vivo; settings: DS rats, 4% salt diet, 2 g daily/kg orally, 4 weeks
Text: as §1, with “[…] A 10-μm ring slice piece was prepared from the embedded aorta with a cryostat,” for “So as”, “observe” for “assay”, “intra-tissue localization of ethidium generated from the specific reaction between active oxygen and DHE, along with the intensity” for “expression level”, “luminescence, with a co-focus microscope (Bio-Rad).” for “messenger RNA of the NADPH oxidase involved in the increase of tissue oxidative stress (J Hypertens. 2004; 22:2161-2168), further, the renal cortex and the thoracic aorta were partially stored at −80° C. The levels of the messenger RNAs of p22phox and Nox analogs (Nox-1, gp91phox, Nox-4) as the NADPH oxidase-composing factors were assayed and compared in between thoracic aorta and renal cortex.”

[8] = 4% salt diet, 2 g daily/kg orally, after 4-week feeding

Row | SMILES | Nox4 messenger RNA level (Nox-4 messenger RNA; Aorta) | Nox4 messenger RNA level (Nox-4 messenger RNA; Renal cortex) | systolic blood pressure ([1]; 0.5% salt diet) [mmHg] | systolic blood pressure ([1]; 8% salt diet) [mmHg] | Heart weight ([2]; 0.5% salt diet) [mg] | Heart/body weight ratio ([2]; 0.5% salt diet) | Kidney weight ([2]; 0.5% salt diet) [mg] | Kidney/body weight ratio ([2]; 0.5% salt diet) | Heart weight ([2]; 8% salt diet) [mg] | Heart/body weight ratio ([2]; 8% salt diet) | Kidney weight ([2]; 8% salt diet) [mg] | Kidney/body weight ratio ([2]; 8% salt diet) | Protein excretion in urine [3, 8] [mg/day] | Protein excretion in urine ([3]; before salt loading (baseline)) [mg/day] | Heart weight [4] [mg] | Heart/body weight ratio [4] | Kidney weight [4] [mg] | Kidney/body weight ratio [4] | Nox1 messenger RNA level (Nox-1 messenger RNA; Aorta) | Nox1 messenger RNA level (Nox-1 messenger RNA; Renal cortex) | further results
1 | O=C[C@H](O)[C@H](O)[C@H](O)[C@H](O)CO [D-allose] | 1.36 ± 0.10 | 1.32 ± 0.22 | 180±5 | 222±8 | 1042 ± 23 | 3.56 ± 0.05 ×10^−3 | 1212 ± 34 | 4.15 ± 0.08 ×10^−3 | 1337 ± 50 | 4.40 ± 0.06 ×10^−3 | 1387 ± 61 | 4.57 ± 0.17 ×10^−3 | 31.3 ± 11.8 | 9.5 ± 1.2 | 994 ± 28 | 2.88 ± 0.07 ×10^−3 | 1389 ± 25 | 4.03 ± 0.03 ×10^−3 | 0.74 ± 0.22 | 0.88 ± 0.11 | gp91phox messenger RNA level (gp91phox messenger RNA; Aorta): 1.34 ± 0.27; gp91phox messenger RNA level (gp91phox messenger RNA; Renal cortex): 0.97 ± 0.15; diastolic pressure [5]: 102±4 mmHg; systolic pressure [5]: 135±7 mmHg; p22phox messenger RNA level (p22phox messenger RNA; Aorta): 0.83 ± 0.21; p22phox messenger RNA level (p22phox messenger RNA; Renal cortex): 1.18 ± 0.20; active oxygen generation in thoracic aorta (lucigenin method) [6]: suppressed to the level as observed in the 0.5% salt diet group or the DR normal control group; signal accumulation in the aorta media nucleus on DHE fluorescence images [7]: suppressed
2 | O=C[C@H](O)[C@@H](O)[C@H](O)[C@H](O)CO [D-glucose] | 1.75 ± 0.24 | 1.38 ± 0.16 | 201±7 | 255±5 | 1180 ± 35 | 3.92 ± 0.15 ×10^−3 | 1206 ± 32 | 3.02 ± 0.02 ×10^−3 | 1437 ± 38 | 4.70 ± 0.13 ×10^−3 | 1342 ± 41 | 4.40 ± 0.19 ×10^−3 | 85.3 ± 20.5 | 13.1 ± 3.2 | 1066 ± 35 | 3.00 ± 0.08 ×10^−3 | 1370 ± 36 | 3.85 ± 0.07 ×10^−3 | 0.85 ± 0.24 | 1.03 ± 0.24 | gp91phox messenger RNA level (gp91phox messenger RNA; Aorta): 1.90 ± 0.19; gp91phox messenger RNA level (gp91phox messenger RNA; Renal cortex): 1.20 ± 0.28; diastolic pressure [5]: 125±6 mmHg; systolic pressure [5]: 162±5 mmHg; p22phox messenger RNA level (p22phox messenger RNA; Aorta): 1.14 ± 0.32; p22phox messenger RNA level (p22phox messenger RNA; Renal cortex): 1.19 ± 0.06; active oxygen generation in thoracic aorta (lucigenin method) [6]: no such suppressive effect was observed; signal accumulation in the aorta media nucleus on DHE fluorescence images [7]: never changed
